Source: US9549932B2, “2-(morpholin-4-yl)-1,7-naphthyridines” (BAYER PHARMA AKTIENGESELLSCHAFT, priority 2014, dated 2017)

These compounds were tested against full-length human ATR protein (Homo sapiens (Human), UniProt Q13535) (assay: Binding assay ATR (TR-FRET tracer displacement)). Conditions: read-out: ATR binding (tracer A) IC50.
Summary of the method: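 Full-length human GST-ATR co-purified with ATRIP, pre-complexed 30 min at 22 °C with anti-GST-Tb antibody, then pre-bound with compound 10 min. Tracer A or B added (2 µl of 100 nM solution), 30 min at 22 °C.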

Chain of full-length human ATR protein (Q13535 other isoform, or with tags, fused parts or gaps): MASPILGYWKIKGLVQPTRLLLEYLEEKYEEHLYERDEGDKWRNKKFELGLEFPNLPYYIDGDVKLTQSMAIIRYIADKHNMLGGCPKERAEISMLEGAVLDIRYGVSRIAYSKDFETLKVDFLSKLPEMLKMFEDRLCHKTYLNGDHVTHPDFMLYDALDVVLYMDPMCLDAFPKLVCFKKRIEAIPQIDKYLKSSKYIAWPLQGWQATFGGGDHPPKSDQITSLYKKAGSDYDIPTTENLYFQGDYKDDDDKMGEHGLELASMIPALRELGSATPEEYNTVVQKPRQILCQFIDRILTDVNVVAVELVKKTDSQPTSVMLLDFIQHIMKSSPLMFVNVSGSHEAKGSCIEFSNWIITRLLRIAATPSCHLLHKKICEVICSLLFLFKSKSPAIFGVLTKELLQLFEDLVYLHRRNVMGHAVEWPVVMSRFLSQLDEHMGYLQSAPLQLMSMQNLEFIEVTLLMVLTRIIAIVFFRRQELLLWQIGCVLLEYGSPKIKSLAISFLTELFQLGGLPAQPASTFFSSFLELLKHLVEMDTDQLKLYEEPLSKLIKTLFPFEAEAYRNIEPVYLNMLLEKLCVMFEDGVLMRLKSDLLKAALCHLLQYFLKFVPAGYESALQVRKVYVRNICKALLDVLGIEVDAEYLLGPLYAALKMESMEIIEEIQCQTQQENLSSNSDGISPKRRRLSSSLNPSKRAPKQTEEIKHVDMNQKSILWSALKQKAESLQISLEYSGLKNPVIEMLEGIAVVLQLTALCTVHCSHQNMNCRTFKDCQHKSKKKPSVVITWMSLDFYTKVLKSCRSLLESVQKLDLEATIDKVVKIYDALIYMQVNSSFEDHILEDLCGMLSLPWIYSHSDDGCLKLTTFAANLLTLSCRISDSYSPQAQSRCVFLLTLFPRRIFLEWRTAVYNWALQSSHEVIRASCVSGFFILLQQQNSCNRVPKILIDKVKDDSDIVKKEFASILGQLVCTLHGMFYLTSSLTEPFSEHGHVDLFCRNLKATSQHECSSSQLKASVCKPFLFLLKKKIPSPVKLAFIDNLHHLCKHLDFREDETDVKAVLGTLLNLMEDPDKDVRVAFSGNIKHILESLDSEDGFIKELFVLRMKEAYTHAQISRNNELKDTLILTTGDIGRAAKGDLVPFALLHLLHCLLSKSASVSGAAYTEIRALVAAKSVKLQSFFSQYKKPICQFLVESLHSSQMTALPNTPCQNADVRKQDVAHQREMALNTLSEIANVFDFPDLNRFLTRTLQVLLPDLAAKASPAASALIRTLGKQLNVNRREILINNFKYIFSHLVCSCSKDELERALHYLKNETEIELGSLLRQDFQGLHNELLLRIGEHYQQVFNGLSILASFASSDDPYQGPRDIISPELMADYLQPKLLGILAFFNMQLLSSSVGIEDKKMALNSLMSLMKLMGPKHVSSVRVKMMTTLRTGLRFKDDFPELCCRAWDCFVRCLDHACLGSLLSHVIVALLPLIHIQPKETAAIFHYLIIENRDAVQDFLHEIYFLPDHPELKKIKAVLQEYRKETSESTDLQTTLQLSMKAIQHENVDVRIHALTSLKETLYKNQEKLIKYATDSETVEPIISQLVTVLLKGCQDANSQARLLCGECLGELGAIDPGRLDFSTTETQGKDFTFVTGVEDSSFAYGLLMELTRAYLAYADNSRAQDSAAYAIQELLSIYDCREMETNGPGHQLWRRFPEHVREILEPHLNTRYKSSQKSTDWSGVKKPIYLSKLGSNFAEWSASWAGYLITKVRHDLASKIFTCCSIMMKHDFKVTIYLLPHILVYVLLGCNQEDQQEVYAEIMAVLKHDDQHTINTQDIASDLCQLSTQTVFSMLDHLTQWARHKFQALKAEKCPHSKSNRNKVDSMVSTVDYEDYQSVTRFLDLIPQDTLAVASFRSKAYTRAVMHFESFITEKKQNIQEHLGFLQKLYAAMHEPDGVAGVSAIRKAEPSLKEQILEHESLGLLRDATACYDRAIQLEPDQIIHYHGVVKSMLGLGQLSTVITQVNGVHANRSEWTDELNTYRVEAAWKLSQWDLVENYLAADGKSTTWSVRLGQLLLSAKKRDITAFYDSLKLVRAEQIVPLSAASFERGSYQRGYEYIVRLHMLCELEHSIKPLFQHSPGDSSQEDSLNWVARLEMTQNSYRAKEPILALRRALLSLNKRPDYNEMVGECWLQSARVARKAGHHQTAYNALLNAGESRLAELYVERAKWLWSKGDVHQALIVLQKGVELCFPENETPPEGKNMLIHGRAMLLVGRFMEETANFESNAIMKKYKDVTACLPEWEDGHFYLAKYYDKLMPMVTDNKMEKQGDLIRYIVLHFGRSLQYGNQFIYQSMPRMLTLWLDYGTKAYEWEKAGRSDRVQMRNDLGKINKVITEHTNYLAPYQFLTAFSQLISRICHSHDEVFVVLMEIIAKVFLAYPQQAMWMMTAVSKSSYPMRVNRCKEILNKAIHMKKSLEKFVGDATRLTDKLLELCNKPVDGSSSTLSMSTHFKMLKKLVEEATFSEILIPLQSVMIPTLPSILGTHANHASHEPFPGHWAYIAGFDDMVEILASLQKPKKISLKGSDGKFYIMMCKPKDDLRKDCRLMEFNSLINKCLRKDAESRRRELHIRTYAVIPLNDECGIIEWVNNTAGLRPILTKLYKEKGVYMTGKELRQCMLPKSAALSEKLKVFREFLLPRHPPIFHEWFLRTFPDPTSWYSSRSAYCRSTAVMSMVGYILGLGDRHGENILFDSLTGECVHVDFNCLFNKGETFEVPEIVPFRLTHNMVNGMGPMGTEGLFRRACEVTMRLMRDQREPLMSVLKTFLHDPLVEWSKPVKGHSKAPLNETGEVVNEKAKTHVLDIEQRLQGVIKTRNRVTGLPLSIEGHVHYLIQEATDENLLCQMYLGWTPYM
Chain of full-length human ATR protein (Q8WXE1 other isoform, or with tags, fused parts or gaps partner): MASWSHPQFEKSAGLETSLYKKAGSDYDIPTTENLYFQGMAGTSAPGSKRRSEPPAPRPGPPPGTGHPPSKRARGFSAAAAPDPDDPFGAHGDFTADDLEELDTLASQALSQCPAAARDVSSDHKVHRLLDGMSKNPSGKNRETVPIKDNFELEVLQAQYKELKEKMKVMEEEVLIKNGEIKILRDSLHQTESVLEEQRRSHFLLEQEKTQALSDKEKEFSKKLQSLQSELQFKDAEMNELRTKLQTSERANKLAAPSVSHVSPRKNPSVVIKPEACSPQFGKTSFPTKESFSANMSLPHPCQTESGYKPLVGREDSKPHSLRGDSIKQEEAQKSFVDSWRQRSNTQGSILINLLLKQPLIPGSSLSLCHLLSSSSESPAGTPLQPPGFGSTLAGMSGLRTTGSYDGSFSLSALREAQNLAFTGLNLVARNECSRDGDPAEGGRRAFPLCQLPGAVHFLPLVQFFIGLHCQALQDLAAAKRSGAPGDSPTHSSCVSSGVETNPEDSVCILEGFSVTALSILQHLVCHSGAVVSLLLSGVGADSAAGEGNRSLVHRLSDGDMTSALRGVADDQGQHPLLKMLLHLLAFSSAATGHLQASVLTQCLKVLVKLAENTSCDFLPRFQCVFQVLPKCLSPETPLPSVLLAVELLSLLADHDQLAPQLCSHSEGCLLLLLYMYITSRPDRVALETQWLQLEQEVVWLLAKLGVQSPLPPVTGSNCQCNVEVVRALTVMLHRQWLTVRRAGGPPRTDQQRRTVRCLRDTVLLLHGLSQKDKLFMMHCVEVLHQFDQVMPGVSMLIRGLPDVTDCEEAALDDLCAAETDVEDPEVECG

In the case of COP(=O)(O)c1ccc(-c2cc(N3CCOCC3)nc3c(-c4ccn[nH]4)nccc23)cc1 [Example 181, Methyl hydrogen {4-[2-(morpholin-4-yl)-8-(1H-pyrazol-5-yl)-1,7-naphthyridin-4-yl]phenyl}phosphonate], the IC50 is reported as 539 nM.

Same assay, conditions: tracer A, TR-FRET; read-out: ATR binding (tracer A) IC50

First: C[C@@H]1COCCN1c1cc(-c2ccn(CCF)n2)c2ccnc(-c3ccn[nH]3)c2n1 [Example 158, 4-[1-(2-fluoroethyl)-1H-pyrazol-3-yl]-2-[(3R)-3-methylmorpholin-4-yl]-8-(1H-pyrazol-5-yl)-1,7-naphthyridine]
Second: C[C@@H]1COCCN1c1cc(-c2cccc(F)n2)c2ccnc(-c3ccn[nH]3)c2n1 [Example 152, 4-(6-fluoropyridin-2-yl)-2-[(3R)-3-methylmorpholin-4-yl]-8-(1H-pyrazol-5-yl)-1,7-naphthyridine]
The IC50 of the first is 3.8-fold lower: 13.5 nM for the first, 51.8 nM for the second. The first is the more potent here.

Going from c1cc(-c2cc(N3CCOCC3)nc3c(-c4ccn[nH]4)nccc23)c2cc[nH]c2c1 [Example 294, 4-(1H-indo1-4-yl)-2-(morpholin-4-yl)-8-(1H-pyrazol-5-yl)-1,7-naphthyridine] to c1cc(-c2cc(N3CCOCC3)nc3c(-c4ccn[nH]4)nccc23)c2cccnc2c1 [Example 349, 2-(morpholin-4-yl)-8-(1H-pyrazol-5-yl)-4-(quinolin-5-yl)-1,7-naphthyridine], the IC50 rises from 37.2 nM to 119 nM (3.2-fold).

First: c1ccc(Sc2cc(N3CCOCC3)nc3c(-c4ccn[nH]4)nccc23)cc1 [Example 207, 2-(morpholin-4-yl)-4-(phenylsulfanyl)-8-(1H-pyrazol-5-yl)-1,7-naphthyridine]
Second: FC(F)(F)c1ccccc1-c1cc(N2CCOCC2)nc2c(-c3ccn[nH]3)nccc12 [Example 301, 2-(morpholin-4-yl)-8-(1H-pyrazol-5-yl)-4-[2-(trifluoromethyl)phenyl]-1,7-naphthyridine]
The IC50 of the first is 25-fold higher: 542 nM for the first, 21.6 nM for the second. The second is the more potent here.

Compared with Cc1cccnc1-c1cc(N2CCOC[C@H]2C)nc2c(-c3ccn[nH]3)nccc12 [Example 165, 2-[(3R)-3-methylmorpholin-4-yl]-4-(3-methylpyridin-2-yl)-8-(1H-pyrazol-5-yl)-1,7-naphthyridine], Cc1cc(-c2cc(N3CCOC[C@H]3C)nc3c(-c4ccn[nH]4)nccc23)cs1 [Example 234, 2-[(3R)-3-methylmorpholin-4-yl]-4-(5-methylthiophen-3-yl)-8-(1H-pyrazol-5-yl)-1,7-naphthyridine] is 7.7-fold lower in IC50: 224 nM for the first, 29.2 nM for the second. The second is the more potent here.

Compared with C[C@@H]1COCCN1c1cc(OCCCCNC(=O)OC(C)(C)C)c2ccnc(-c3ccn[nH]3)c2n1 [Example 52, Tert-butyl [4-({2-[(3R)-3-methylmorpholin-4-yl]-8-(1H-pyrazol-5-yl)-1,7-naphthyridin-4-yl}oxy)butyl]carbamate], CC(C)Cn1cc(-c2cc(N3CCOC[C@H]3C)nc3c(-c4ccn[nH]4)nccc23)cn1 [Example 268, 2-[(3R)-3-methylmorpholin-4-yl]-4-[1-(2-methylpropyl)-1H-pyrazol-4-yl]-8-(1H-pyrazol-5-yl)-1,7-naphthyridine] is 5.2-fold lower in IC50: 101 nM for the first, 19.3 nM for the second.

First: Nc1ccc(-c2cc(N3CCOCC3)nc3c(-c4ccn[nH]4)nccc23)cn1 [Example 386, 5-[2-(morpholin-4-yl)-8-(1H-pyrazol-5-yl)-1,7-naphthyridin-4-yl]pyridin-2-amine]
Second: Oc1ccc(-c2cc(N3CCOCC3)nc3c(-c4ccn[nH]4)nccc23)cn1 [Example 23, 5-[2-(morpholin-4-yl)-8-(1H-pyrazol-5-yl)-1,7-naphthyridin-4-yl]pyridin-2(1H)-one]
The IC50 of the first is 2.6-fold lower: 173 nM for the first, 443 nM for the second.

Going from C[C@@H]1COCCN1c1cc(-c2ccccc2)c2ccnc(-c3cc[nH]n3)c2n1 [Example 27, 2-((R)-3-methylmorpholin-4-yl)-4-phenyl-8-(2H-pyrazol-3-yl)-[1,7]naphthyridine] to C[C@@H]1COCCN1c1cc(C(N)=O)c2ccnc(-c3cc[nH]n3)c2n1 [Example 285, 2-[(3R)-3-methylmorpholin-4-yl]-8-(1H-pyrazol-3-yl)-1,7-naphthyridine-4-carboxamide], the IC50 rises from 17.2 nM to 509 nM (30-fold).

Going from c1csc(-c2cc(N3CCOCC3)nc3c(-c4ccn[nH]4)nccc23)c1 [Example 371, 2-(morpholin-4-yl)-8-(1H-pyrazol-5-yl)-4-(thiophen-2-yl)-1,7-naphthyridine] to Cn1cccc1-c1cc(N2CCOCC2)nc2c(-c3ccn[nH]3)nccc12 [Example 389, 4-(1-methyl-1H-pyrrol-2-yl)-2-(morpholin-4-yl)-8-(1H-pyrazol-5-yl)-1,7-naphthyridine], the IC50 falls from 122 nM to 26.6 nM (4.6-fold).

Cc1ccc(-c2cc(N3CCOC[C@H]3C)nc3c(-c4ccn[nH]4)nccc23)c(F)n1 [Example 93, 4-(2-fluoro-6-methylpyridin-3-yl)-2-[(3R)-3-methylmorpholin-4-yl]-8-(1H-pyrazol-5-yl)-1,7-naphthyridine] and C[C@@H]1COCCN1c1cc(-c2ccccc2F)c2ccnc(-c3ccn[nH]3)c2n1 [Example 77, 4-(2-fluorophenyl)-2-[(3R)-3-methylmorpholin-4-yl]-8-(1H-pyrazol-5-yl)-1,7-naphthyridine] are within 1.5-fold of each other in IC50: 10.9 nM for the first, 8.92 nM for the second.

COc1cc(-c2cc(N3CCOCC3)nc3c(-c4ccn[nH]4)nccc23)ccn1 [Example 351, 4-(2-methoxypyridin-4-yl)-2-(morpholin-4-yl)-8-(1H-pyrazol-5-yl)-1,7-naphthyridine] and Cc1ccncc1-c1cc(N2CCOCC2)nc2c(-c3ccn[nH]3)nccc12 [Example 292, 4-(4-methylpyridin-3-yl)-2-(morpholin-4-yl)-8-(1H-pyrazol-5-yl)-1,7-naphthyridine] are within 1.5-fold of each other in IC50: 154 nM for the first, 108 nM for the second.

Going from CCCN(C)c1cc(N2CCOCC2)nc2c(-c3ccn[nH]3)nccc12 [Example 412, N-methyl-2-(morpholin-4-yl)-N-propyl-8-(1H-pyrazol-5-yl)-1,7-naphthyridin-4-amine] to CC(C)[S+]([O-])c1cc(N2CCOCC2)nc2c(-c3ccn[nH]3)nccc12 (centres unmarked) [Example 196, 2-(morpholin-4-yl)-4-[propan-2-ylsulfinyl]-8-(1H-pyrazol-5-yl)-1,7-naphthyridine], the IC50 falls from 162 nM to 72.6 nM (2.2-fold). The second is the more potent here.

First: Cc1cccc(-c2cc(N3CCOCC3)nc3c(-c4ccn[nH]4)nccc23)c1C [Example 312, 4-(2,3-dimethylphenyl)-2-(morpholin-4-yl)-8-(1H-pyrazol-5-yl)-1,7-naphthyridine]
Second: CC(C)c1ccc(-c2cc(N3CCOCC3)nc3c(-c4ccn[nH]4)nccc23)cc1 [Example 329, 2-(morpholin-4-yl)-4-[4-(propan-2-yl)phenyl]-8-(1H-pyrazol-5-yl)-1,7-naphthyridine]
The IC50 of the first is 7.1-fold lower: 23.7 nM for the first, 169 nM for the second. The first is the more potent here.

O=C1CCCCN1c1cc(N2CCOCC2)nc2c(-c3ccn[nH]3)nccc12 [Example 217, 1-[2-(morpholin-4-yl)-8-(1H-pyrazol-5-yl)-1,7-naphthyridin-4-yl]piperidin-2-one] and CN1CCN(c2cc(N3CCOCC3)nc3c(-c4ccn[nH]4)nccc23)CC1 [Example 182, 4-(4-methylpiperazin-1-yl)-2-(morpholin-4-yl)-8-(1H-pyrazol-5-yl)-1,7-naphthyridine] are within 1.5-fold of each other in IC50: 802 nM for the first, 632 nM for the second.

Compared with CN(c1cccc(F)c1)c1cc(N2CCOCC2)nc2c(-c3ccn[nH]3)nccc12 [Example 424, N-(3-fluorophenyl)-N-methyl-2-(morpholin-4-yl)-8-(1H-pyrazol-5-yl)-1,7-naphthyridin-4-amine], C[C@@H]1COCCN1c1cc(N(C)c2ccc(F)cc2)c2ccnc(-c3ccn[nH]3)c2n1 [Example 87, N-(4-fluorophenyl)-N-methyl-2-[(3R)-3-methylmorpholin-4-yl]-8-(1H-pyrazol-5-yl)-1,7-naphthyridin-4-amine] is 28-fold lower in IC50: 241 nM for the first, 8.71 nM for the second. The second is the more potent here.

First: C[C@@H]1COCCN1c1cc(-c2cncc(Cl)c2)c2ccnc(-c3ccn[nH]3)c2n1 [Example 130, 4-(5-chloropyridin-3-yl)-2-[(3R)-3-methylmorpholin-4-yl]-8-(1H-pyrazol-5-yl)-1,7-naphthyridine]
Second: C[C@@H]1COCCN1c1cc(-c2ccc(Cl)s2)c2ccnc(-c3ccn[nH]3)c2n1 [Example 238, 4-(5-chlorothiophen-2-yl)-2-[(3R)-3-methylmorpholin-4-yl]-8-(1H-pyrazol-5-yl)-1,7-naphthyridine]
The IC50 of the first is 1.6-fold lower: 21.6 nM for the first, 34.5 nM for the second. The first is the more potent here.

NC(=O)c1ccc(-c2cc(N3CCOCC3)nc3c(-c4ccn[nH]4)nccc23)cc1 [Example 296, 4-[2-(morpholin-4-yl)-8-(1H-pyrazol-5-yl)-1,7-naphthyridin-4-yl]benzamide] and NC(=O)c1cccc(-c2cc(N3CCOCC3)nc3c(-c4ccn[nH]4)nccc23)c1 [Example 295, 3-[2-(morpholin-4-yl)-8-(1H-pyrazol-5-yl)-1,7-naphthyridin-4-yl]benzamide] are within 1.5-fold of each other in IC50: 76.8 nM for the first, 113 nM for the second.

C[C@@H]1COCCN1c1cc(-c2cccc(S(C)(=O)=O)c2F)c2ccnc(-c3ccn[nH]3)c2n1 [Example 132, 4-[2-fluoro-3-(methylsulfonyl)phenyl]-2-[(3R)-3-methylmorpholin-4-yl]-8-(1H-pyrazol-5-yl)-1,7-naphthyridine] and C[C@@H]1COCCN1c1cc(-c2ccsc2Cl)c2ccnc(-c3ccn[nH]3)c2n1 [Example 236, 4-(2-chlorothiophen-3-yl)-2-[(3R)-3-methylmorpholin-4-yl]-8-(1H-pyrazol-5-yl)-1,7-naphthyridine] are within 1.5-fold of each other in IC50: 23.7 nM for the first, 28.2 nM for the second.

Going from Cc1cc(COc2cc(N3CCOCC3)nc3c(-c4ccn[nH]4)nccc23)on1 [Example 48, 4-[(3-methyl-1,2-oxazol-5-yl)methoxy]-2-(morpholin-4-yl)-8-(1H-pyrazol-5-yl)-1,7-naphthyridine] to CS(=N)(=O)c1ccc(-c2cc(N3CCOCC3)nc3c(-c4ccn[nH]4)nccc23)cc1 (centres unmarked) [Example 2], the IC50 falls from 161 nM to 95.2 nM (1.7-fold). The second is the more potent here.

CC(C)n1nccc1-c1cc(N2CCOC[C@H]2C)nc2c(-c3ccn[nH]3)nccc12 [Example 124, 4-(1-isopropyl-1H-pyrazol-5-yl)-2-[(3R)-3-methylmorpholin-4-yl]-8-(1H-pyrazol-5-yl)-1,7-naphthyridine] showed an IC50 of 13.6 nM.

Same assay, conditions: tracer B, TR-FRET; read-out: ATR binding (tracer B) IC50

Going from C[C@@H]1COCCN1c1cc(OCCCCNC(=O)OC(C)(C)C)c2ccnc(-c3ccn[nH]3)c2n1 [Example 52, Tert-butyl [4-({2-[(3R)-3-methylmorpholin-4-yl]-8-(1H-pyrazol-5-yl)-1,7-naphthyridin-4-yl}oxy)butyl]carbamate] to C[C@@H]1COCCN1c1cc(-c2ccccc2)c2ccnc(-c3cc[nH]n3)c2n1 [Example 27, 2-((R)-3-methylmorpholin-4-yl)-4-phenyl-8-(2H-pyrazol-3-yl)-[1,7]naphthyridine], the IC50 falls from 78.9 nM to 10.9 nM (7.2-fold).

CS(=N)(=O)c1ccc(-c2cc(N3CCOCC3)nc3c(-c4ccn[nH]4)nccc23)cc1 (centres unmarked) [Example 2] showed an IC50 of 38.3 nM.
